Measurements reported in patent US8450317B2, “CXCR3 receptor antagonists” (Boehringer Ingelheim International GmbH, priority 2009, dated 2013).
pIC50: −log10 of the molar value.

Biological target: CXCR3 (Macaca fascicularis, UniProt A0A2K5UV19)
Assay: functional cellular assay measuring calcium flux in CXCR3 transfected cells (block of CXCR3/IP-10 interaction)
Assay type: cell-based, Cyno
Conditions: IP-10 induced intracellular calcium flux; Cyno-CHO cells stably expressing recombinant CXCR3 and G-alpha-16; IP-10 at EC80; read-out: IC50
Procedure, shortened: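 Cyno-CHO cells stably expressing CXCR3 and G-alpha-16, loaded with Ca-4 dye in HBSS/10 mM HEPES pH 7.4 with 2 mM probenecid for 1 h at 37° C. Compound (final 10 microM) preincubated 15 min at room temperature, then IP-10 at EC80 added; calcium flux read at 480/540 nm.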

CXCR3, sequence (A0A2K5UV19 entry or part of it): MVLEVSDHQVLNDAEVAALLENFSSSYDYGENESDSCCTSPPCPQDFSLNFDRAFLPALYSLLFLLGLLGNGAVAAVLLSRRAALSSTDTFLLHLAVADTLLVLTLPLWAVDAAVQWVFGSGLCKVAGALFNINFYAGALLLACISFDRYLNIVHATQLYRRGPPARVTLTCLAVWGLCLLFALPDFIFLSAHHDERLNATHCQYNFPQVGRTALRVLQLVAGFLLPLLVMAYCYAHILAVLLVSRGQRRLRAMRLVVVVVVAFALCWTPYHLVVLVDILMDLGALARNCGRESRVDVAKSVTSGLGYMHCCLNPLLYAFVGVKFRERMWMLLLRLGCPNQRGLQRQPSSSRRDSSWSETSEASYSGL

Row | pIC50 | Compound
1 | 7.85 | Cc1cc(C)n(CC(=O)N2CCN(c3ccccc3-c3cnc(N4C[C@@H]5C[C@H]4CO5)nc3)CC2)n1 [2-(3,5-Dimethyl-pyrazol-1-yl)-1-(4-{2-[(1S,4S)-2-(2-oxa-5-aza-bicyclo[2.2.1]hept-5-yl)-pyrimidin-5-yl]-phenyl}-piperazin-1-yl)-ethanone]
2 | 7.92 | Cc1cc(C)n(CC(=O)N2CCN(c3ccccc3-c3cnc(N4CCC(C(C)(C)O)CC4)nc3)CC2)n1 [2-(3,5-Dimethyl-pyrazol-1-yl)-1-[4-(2-{2-[4-(1-hydroxy-1-methyl-ethyl)-piperidin-1-yl]-pyrimidin-5-yl}-phenyl)-piperazin-1-yl]-ethanone]
3 | 7.25 | COc1cccc(-c2ccccc2N2CCN(C(=O)Cn3nc(C)cc3C)CC2)c1 [2-(3,5-Dimethyl-pyrazol-1-yl)-1-[4-(3′-methoxy-biphenyl-2-yl)-piperazin-1-yl]-ethanone]
4 | 7.15 | Cc1ccc(-c2ccccc2N2CCN(C(=O)Cn3nc(C)cc3C)CC2)cc1 [2-(3,5-Dimethyl-pyrazol-1-yl)-1-[4-(4′-methyl-biphenyl-2-yl)-piperazin-1-yl]-ethanone]
5 | 7.72 | Cc1cc(C)n(CC(=O)N2CCN(c3ccccc3-c3ccc4ccn(C)c4c3)CC2)n1 [2-(3,5-Dimethyl-pyrazol-1-yl)-1-{4-[2-(1-methyl-1H-indol-6-yl)-phenyl]-piperazin-1-yl}-ethanone]
6 | 7.09 | Cc1cc(C)n(CC(=O)N2CCN(c3ccccc3-c3ccc4cc[nH]c4c3)CC2)n1 [2-(3,5-Dimethyl-pyrazol-1-yl)-1-{4-[2-(1H-indol-6-yl)-phenyl]-piperazin-1-yl}-ethanone]
7 | 7.96 | Cc1cc(C)n(CC(=O)N2CCN(c3ccccc3-c3cnc(N4CCCOCC4)nc3)CC2)n1 [2-(3,5-Dimethyl-pyrazol-1-yl)-1-{4-[2-(2-[1,4]oxazepan-4-yl-pyrimidin-5-yl)-phenyl]-piperazin-1-yl}-ethanone]
8 | 7.74 | CCOc1ncc(-c2ccccc2N2CCN(C(=O)Cn3nc(C)cc3C)CC2)cn1 [2-(3,5-Dimethyl-pyrazol-1-yl)-1-{4-[2-(2-ethoxy-pyrimidin-5-yl)-phenyl]-piperazin-1-yl}-ethanone]
9 | 8.00 | CCNc1ncc(-c2ccccc2N2CCN(C(=O)Cn3nc(C)cc3C)CC2)cn1 [2-(3,5-Dimethyl-pyrazol-1-yl)-1-{4-[2-(2-ethylamino-pyrimidin-5-yl)-phenyl]-piperazin-1-yl}-ethanone]
10 | 7.27 | Cc1cc(C)n(CC(=O)N2CCN(c3ccc(C(F)(F)F)cc3-c3cnc(S(C)(=O)=O)nc3)CC2)n1 [2-(3,5-Dimethyl-pyrazol-1-yl)-1-{4-[2-(2-methanesulfonyl-pyrimidin-5-yl)-4-trifluoromethyl-phenyl]-piperazin-1-yl}-ethanone]
11 | 8.10 | COc1ncc(-c2cc(C(F)(F)F)ccc2N2CCN(C(=O)Cn3nc(C)cc3C)CC2)cn1 [2-(3,5-Dimethyl-pyrazol-1-yl)-1-{4-[2-(2-methoxy-pyrimidin-5-yl)-4-trifluoromethyl-phenyl]-piperazin-1-yl}-ethanone]
12 | 7.34 | COc1ncc(-c2ccccc2N2CCN(C(=O)Cn3nc(C)cc3C)CC2)cn1 [2-(3,5-Dimethyl-pyrazol-1-yl)-1-{4-[2-(2-methoxy-pyrimidin-5-yl)-phenyl]-piperazin-1-yl}-ethanone]
13 | 7.17 | Cc1cc(C)n(CC(=O)N2CCN(c3ccccc3-c3cnc(C)nc3)CC2)n1 [2-(3,5-Dimethyl-pyrazol-1-yl)-1-{4-[2-(2-methyl-pyrimidin-5-yl)-phenyl]-piperazin-1-yl}-ethanone]
14 | 8.15 | CNc1ncc(-c2cc(C(F)(F)F)ccc2N2CCN(C(=O)Cn3nc(C)cc3C)CC2)cn1 [2-(3,5-Dimethyl-pyrazol-1-yl)-1-{4-[2-(2-methylamino-pyrimidin-5-yl)-4-trifluoromethyl-phenyl]-piperazin-1-yl}-ethanone]
15 | 7.47 | CNc1ncc(-c2ccccc2N2CCN(C(=O)Cn3nc(C)cc3C)CC2)cn1 [2-(3,5-Dimethyl-pyrazol-1-yl)-1-{4-[2-(2-methylamino-pyrimidin-5-yl)-phenyl]-piperazin-1-yl}-ethanone]
16 | 8.30 | CSc1ncc(-c2cc(C(F)(F)F)ccc2N2CCN(C(=O)Cn3nc(C)cc3C)CC2)cn1 [2-(3,5-Dimethyl-pyrazol-1-yl)-1-{4-[2-(2-methylsulfanyl-pyrimidin-5-yl)-4-trifluoromethyl-phenyl]-piperazin-1-yl}-ethanone]
17 | 8.00 | CSc1ncc(-c2ccccc2N2CCN(C(=O)Cn3nc(C)cc3C)CC2)cn1 [2-(3,5-Dimethyl-pyrazol-1-yl)-1-{4-[2-(2-methylsulfanyl-pyrimidin-5-yl)-phenyl]-piperazin-1-yl}-ethanone]
18 | 8.10 | Cc1cc(C)n(CC(=O)N2CCN(c3ccc(C(F)(F)F)cc3-c3cnc(N4CCOCC4)nc3)CC2)n1 [2-(3,5-Dimethyl-pyrazol-1-yl)-1-{4-[2-(2-morpholin-4-yl-pyrimidin-5-yl)-4-trifluoromethyl-phenyl]-piperazin-1-yl}-ethanone]

Row | pIC50 | Compound
19 | 8.05 | Cc1cc(C)n(CC(=O)N2CCN(c3ccccc3-c3cnc(N4CCOCC4)nc3)CC2)n1 [2-(3,5-Dimethyl-pyrazol-1-yl)-1-{4-[2-(2-morpholin-4-yl-pyrimidin-5-yl)-phenyl]-piperazin-1-yl}-ethanone]
20 | 7.41 | Cc1cc(C)n(CC(=O)N2CCN(c3ccccc3-c3cnc(Oc4ccccc4)nc3)CC2)n1 [2-(3,5-Dimethyl-pyrazol-1-yl)-1-{4-[2-(2-phenoxy-pyrimidin-5-yl)-phenyl]-piperazin-1-yl}-ethanone]
21 | 8.15 | Cc1cc(C)n(CC(=O)N2CCN(c3ccccc3-c3cnc(N4CCCCC4)nc3)CC2)n1 [2-(3,5-Dimethyl-pyrazol-1-yl)-1-{4-[2-(2-piperidin-1-yl-pyrimidin-5-yl)-phenyl]-piperazin-1-yl}-ethanone]
22 | 8.15 | Cc1cc(C)n(CC(=O)N2CCN(c3ccccc3-c3cnc(N4CCCC4)nc3)CC2)n1 [2-(3,5-Dimethyl-pyrazol-1-yl)-1-{4-[2-(2-pyrrolidin-1-yl-pyrimidin-5-yl)-phenyl]-piperazin-1-yl}-ethanone]
23 | 7.24 | COc1ccc(-c2ccccc2N2CCN(C(=O)Cn3nc(C)cc3C)CC2)cn1 [2-(3,5-Dimethyl-pyrazol-1-yl)-1-{4-[2-(6-methoxy-pyridin-3-yl)-phenyl]-piperazin-1-yl}-ethanone]
24 | 7.85 | COc1ncc(-c2cc(F)ccc2N2CCN(C(=O)Cn3nc(C)cc3C)CC2)cn1 [2-(3,5-Dimethyl-pyrazol-1-yl)-1-{4-[4-fluoro-2-(2-methoxy-pyrimidin-5-yl)-phenyl]-piperazin-1-yl}-ethanone]
25 | 8.30 | Cc1cc(C)n(CC(=O)N2CCN(c3ccc(F)cc3-c3cnc(N4CCOCC4)nc3)CC2)n1 [2-(3,5-Dimethyl-pyrazol-1-yl)-1-{4-[4-fluoro-2-(2-morpholin-4-yl-pyrimidin-5-yl)-phenyl]-piperazin-1-yl}-ethanone]
26 | 7.25 | Cc1cc(C)n(CC(=O)N2CCN(c3ccc(C(F)(F)F)cc3-c3cnc(S(C)(=O)=O)nc3)CC2C)n1 (centres unmarked) [2-(3,5-dimethyl-1H-pyrazol-1-yl)-1-(2-methyl-4-{2-[2-(methylsulfonyl)pyrimidin-5-yl]-4-(trifluoromethyl)phenyl}piperazin-1-yl)ethanone]
27 | 8.10 | Cc1cc(C)n(CC(=O)N2CCN(c3ccc(C(F)(F)F)cc3-c3cnc(N4CCC(O)CC4)nc3)CC2C)n1 (centres unmarked) [2-(3,5-dimethyl-1H-pyrazol-1-yl)-1-(4-{2-[2-(4-hydroxypiperidin-1-yl)pyrimidin-5-yl]-4-(trifluoromethyl)phenyl}-2-methylpiperazin-1-yl)ethanone]
28 | 7.89 | Cc1cc(C)n(CC(=O)N2CCN(c3ccccc3-c3cnc(N4CCC(O)CC4)nc3)CC2C)n1 (centres unmarked) [2-(3,5-dimethyl-1H-pyrazol-1-yl)-1-(4-{2-[2-(4-hydroxypiperidin-1-yl)pyrimidin-5-yl]phenyl}-2-methylpiperazin-1-yl)ethanone]
29 | 8.05 | Cc1cc(C)n(CC(=O)N2CCN(c3ccc(F)cc3-c3cnc(N4CCC(O)CC4)nc3)CC2)n1 [2-(3,5-dimethyl-1H-pyrazol-1-yl)-1-(4-{4-fluoro-2-[2-(4-hydroxypiperidin-1-yl)pyrimidin-5-yl]phenyl}piperazin-1-yl)ethanone]
30 | 7.40 | Cc1cc(C)n(CC(=O)N2CCN(c3ccc(F)cc3-c3cnc(N4CCN(C)CC4)nc3)CC2)n1 [2-(3,5-dimethyl-1H-pyrazol-1-yl)-1-(4-{4-fluoro-2-[2-(4-methylpiperazin-1-yl)pyrimidin-5-yl]phenyl}piperazin-1-yl)ethanone]
31 | 6.80 | Cc1cc(C)n(CC(=O)N2CCN(c3ccc(F)cc3-c3cnc(S(C)(=O)=O)nc3)CC2C)n1 (centres unmarked) [2-(3,5-dimethyl-1H-pyrazol-1-yl)-1-(4-{4-fluoro-2-[2-(methylsulfonyl)pyrimidin-5-yl]phenyl}-2-methylpiperazin-1-yl)ethanone]
32 | 6.56 | Cc1cc(C)n(CC(=O)N2CCN(c3ccc(F)cc3-c3cnc(S(C)(=O)=O)nc3)CC2)n1 [2-(3,5-dimethyl-1H-pyrazol-1-yl)-1-(4-{4-fluoro-2-[2-(methylsulfonyl)pyrimidin-5-yl]phenyl}piperazin-1-yl)ethanone]
33 | 7.80 | Cc1cc(C)n(CC(=O)N2CCN(c3ccc(F)cc3-c3cnc(N4CCCC4)nc3)CC2)n1 [2-(3,5-dimethyl-1H-pyrazol-1-yl)-1-(4-{4-fluoro-2-[2-(pyrrolidin-1-yl)pyrimidin-5-yl]phenyl}piperazin-1-yl)ethanone]
34 | 8.05 | Cc1cc(C)n(CC(=O)N2CCN(c3ccccc3-c3cnc(N4CCC(S(C)(=O)=O)CC4)nc3)CC2C)n1 (centres unmarked) [2-(3,5-dimethyl-1H-pyrazol-1-yl)-1-[2-methyl-4-(2-{2-[4-(methylsulfonyl)piperidin-1-yl]pyrimidin-5-yl}phenyl)piperazin-1-yl]ethanone]
35 | 8.00 | Cc1cc(C)n(CC(=O)N2CCN(c3ccc(F)cc3-c3cnc(N4CCC(S(C)(=O)=O)CC4)nc3)CC2C)n1 (centres unmarked) [2-(3,5-dimethyl-1H-pyrazol-1-yl)-1-[4-(4-fluoro-2-{2-[4-(methylsulfonyl)piperidin-1-yl]pyrimidin-5-yl}phenyl)-2-methylpiperazin-1-yl]ethanone]
